{"source": "patent US12721845B2", "about": "“Therapeutic or prophylactic agent for cachexia accompanied by ghrelin resistance” (Toray Industries, Inc., priority 2021, dated 2026)", "key": {"[1]": {"test_system": "tumor-bearing mouse model (non-small cell lung cancer model accompanied by ghrelin resistance)", "experiment": "Example 1: food intake and body weight in tumor-bearing mouse model (A549 cells transplanted into nude mice)", "assay_type": "in vivo", "conditions": "for body weight after 5-day administration / cumulative food intake in the period of administration: vs distilled water group", "description": "Using tumor-bearing model animals where adenocarcinomic human alveolar basal epithelial cells, A549 cells, were transplanted into nude mice, examination was performed about drug efficacy of Compound 1 on the food intake and the body weight.\nSubculture of A549 cells was performed using a 10% FBS-containing RPMI1640 culture medium. In evaluation of drug efficacy, 6-week-old female BALB/C slc/nu/nu mice (Japan SLC, Inc.) were purchased, and were used after habituated for one week. Tumor-bearing model animals were prepared as follows. Specifically, 2.5×10^7 cells of A549 cells were transplanted to the right abdominal region of each mouse by subdermal administration. On Day 43 from the cell transplantation, the mice were divided into groups to have an equal averaged tumor volume.\nThe effects of a variety of compounds on food intake and body weight were examined as follows. Specifically, for 5 days from Day 44 to Day 48 from the cell transplantation, the compounds were orally administered daily, and the food intake and the body weight were measured at the same time. The doses of Compound 1 were 0.25 mg/kg (6 animals), 0.5 mg/kg (6 animals), and 1 mg/kg (6 animals). To verify that the model animals are in a ghrelin resistant state, anamorelin hydrochloride (MedChemExpress) was used at 30 mg/kg (6 animals). The food intake was calculated by subtracting the weight of feed on the previous day of measurement from the weight of feed on the day of measurement.\nIn FIG. 1, the ordinate represents the cumulative food intake in the period of administration of the compounds (from the start of administration to the day next to the final day of administration). In FIG. 2, the ordinate represents the percentage of changes in body weight on Day 6 from the start of administration of the compounds (the day next to the final day of administration) (after 5-day administration) (relative to the body weight measured immediately before the first administration of the compound designated as 100%). In the abscissas of FIGS. 1 and 2, “Distilled water” represents distilled water-treated group, “Compound 1 0.25” represents Compound 1-treated group at 0.25 mg/kg, “Compound 1 0.5” represents Compound 1-treated group at 0.5 mg/kg, “Compound 1 1” represents Compound 1-treated group at 1 mg/kg, and “Anamorelin” represents anamorelin hydrochloride-treated group at 30 mg/kg. In FIGS. 1 and 2, the mark “*” represents a statistical significance (*: P<0.05) in comparison with distilled water-treated group (Dunnett's multiple test)."}, "[2]": {"test_system": "tumor-bearing mouse model (non-small cell lung cancer model accompanied by ghrelin resistance)", "experiment": "Example 2: food intake and body weight in tumor-bearing mouse model (A549 cells transplanted into nude mice)", "assay_type": "in vivo", "description": "Using tumor-bearing model animals where adenocarcinoma human alveolar basal epithelial cells, A549 cells, were transplanted into nude mice, examination was performed about drug efficacy of Compounds 1 and 2 on the food intake and the body weight.\nSubculture of A549 cells was performed using a 10% FBS-containing RPMI1640 culture medium. In evaluation of drug efficacy, 7-week old female BALB/C slc/nu/nu mice (Japan SLC, Inc.) were purchased, and were used after habituated for one week. Tumor-bearing model animals were prepared as follows. Specifically, 2.5×10^7 cells of A549 cells were transplanted to the right abdominal region of each mouse by subdermal administration. On Day 43 from the cell transplantation, the mice were divided into groups to have an equal averaged tumor volume.\nThe effects of a variety of compounds on food intake and body weight were examined as follows. Specifically, for 5 days from Day 44 to Day 48 from the cell plantation, Compound 2 was intraperitoneally administered daily, Compound 1 and anamorelin hydrochloride were orally administered daily, and the amount of feed and the body weight were measured at the same time. Compound 2 was used at 1 mg/kg (9 animals), and Compound 1 was used at 0.25 mg/kg (9 animals), which is the lowest dose to exert drug efficacy. To verify that the model animals are in a ghrelin resistant state, anamorelin hydrochloride was used at 30 mg/kg (9 animals) herein. The food intake was calculated by subtracting the weight of feed on the previous day of measurement from the weight of feed on the day of measurement.\nIn FIG. 3, the ordinate represents the cumulative food intake in the period of administration of the compounds (from the start of administration to the day next to the final day of administration). In FIG. 4, the ordinate represents the percentage of changes in body weight on Day 6 from the start of administration of the compounds (the day next to the final day of administration) (after 5-day administration) (relative to the body weight measured immediately before the first administration of the compound designated as 100%). In the abscissas of FIGS. 3 and 4, “Normal saline” represents a group treated intraperitoneally with normal saline, “Compound 2” represents a group treated intraperitoneally with Compound 2 at 1 mg/kg, “Compound 1” represents a group treated orally with Compound 1 at 0.25 mg/kg, and “Aanamorelin” represents a group treated orally with anamorelin hydrochloride at 30 mg/kg. In FIGS. 3 and 4, the mark “*” represents a statistical significance (*: P<0.05) compared to the group treated with normal saline (Dunnett's multiple test)."}, "[3]": {"test_system": "model of non-small cell lung cancer to which A549 cells have been transplanted subcutaneously", "conditions": "cited from earlier work"}, "[4]": {"test_system": "normal animal", "conditions": "anamorelin hydrochloride 30 mg/kg; cited from earlier work"}, "[5]": {"conditions": "Compound 1 0.25 mg/kg oral daily for 5 days, compared with Compound 2 1 mg/kg i.p."}, "[6]": {"conditions": "Compound 2 1 mg/kg intraperitoneal daily for 5 days, vs normal saline group, Dunnett P<0.05"}, "[7]": {"conditions": "anamorelin hydrochloride 30 mg/kg oral daily for 5 days"}}, "note": "Counter-ions that a name gives are not always drawn.", "data": [{"compound": "CN(C(=O)/C=C/c1ccoc1)[C@@H]1CC[C@@]2(O)[C@H]3Cc4ccc(O)c5c4[C@@]2(CCN3CC2CC2)[C@H]1O5", "note": "[Compound 1, (−)-17-(cyclopropylmethyl)-3,14β-dihydroxy-4,5α-epoxy-6β-[N-methyl-trans-3-(3-furyl)acrylamide]morphinan hydrochloride]", "values": [{"measurement": "body weight after 5-day administration", "setting": "[1]; Compound 1 0.25 mg/kg oral daily for 5 days", "result": "tendency of an increase in body weight"}, {"measurement": "body weight after 5-day administration", "setting": "[1]; Compound 1 0.5 mg/kg oral daily for 5 days, Dunnett P<0.05", "result": "statistically significant increasing effect in body weight"}, {"measurement": "body weight after 5-day administration", "setting": "[1]; Compound 1 1 mg/kg oral daily for 5 days, Dunnett P<0.05", "result": "statistically significant increasing effect in body weight"}, {"measurement": "cumulative food intake in the period of administration", "setting": "[1]; Compound 1 0.25, 0.5 and 1 mg/kg oral daily for 5 days (Day 44-48 from transplantation), Dunnett P<0.05", "result": "statistically significant increasing effect in food intake"}, {"measurement": "lowest dose to exert drug efficacy", "setting": "[1]; oral, tumor-bearing mouse model", "result": 0.25, "unit": "mg/kg"}, {"measurement": "body weight after 5-day administration", "setting": "[2]; [5]", "result": "increasing effect in body weight higher than those exhibited by Compound 2"}, {"measurement": "cumulative food intake in the period of administration", "setting": "[2]; [5]", "result": "increasing effect in food intake and the increasing effect in body weight higher than those exhibited by Compound 2"}]}, {"compound": "CC(C)C[C@@H](NC(=O)[C@@H](Cc1ccccc1)NC(=O)[C@H](N)Cc1ccccc1)C(=O)N[C@H](CCCCN)C(=O)N1CCC(N)(C(=O)O)CC1", "note": "[Compound 2, 4-amino-1-[(2R)-6-amino-2-[(2R)-2-[(2R)-2-[(2R)-2-amino-3-phenylpropanamide]-3-phenylpropanamide]-4-methylpentanamide]hexanoyl]piperidine-4-carboxylic acid]", "values": [{"measurement": "body weight after 5-day administration", "setting": "[2]; [6]", "result": "statistically significant increasing effect in body weight"}, {"measurement": "cumulative food intake in the period of administration", "setting": "[2]; [6]", "result": "statistically significant increasing effect in food intake"}]}, {"compound": "CN(C)N(C)C(=O)[C@@]1(Cc2ccccc2)CCCN(C(=O)[C@@H](Cc2c[nH]c3ccccc23)NC(=O)C(C)(C)N)C1", "note": "[anamorelin hydrochloride, reference compound]", "values": [{"measurement": "body weight", "setting": "[3]; anamorelin hydrochloride 30 mg/kg, A549 cells transplanted subcutaneously in the abdominal region", "result": "increase in body weight"}, {"measurement": "therapeutic effects on cachexia", "setting": "[3]; anamorelin hydrochloride administered on Day 23 from cell transplantation", "result": "achieved therapeutic effects on cachexia"}, {"measurement": "body weight", "setting": "[4]", "result": "increase in body weight"}, {"measurement": "body weight after 5-day administration", "setting": "[1]; [7]", "result": "any statistically significant increasing effect in food intake or increasing effect in body weight was not observed"}, {"measurement": "cumulative food intake in the period of administration", "setting": "[1]; [7]", "result": "any statistically significant increasing effect in food intake or increasing effect in body weight was not observed"}, {"measurement": "therapeutic effects on cachexia", "setting": "[2]; anamorelin hydrochloride 30 mg/kg oral, administered from Day 44 after cell transplantation (Examples 1 and 2)", "result": "no therapeutic effects were observed on cachexia"}]}]}
